Source: PubChem BioAssay (NCI)
Where “and” joins values, the source holds several entries; their conditions need not be identical. Equal entries are not always repeated.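 Five compound concentrations were applied to cells in 96-well plates for 48 hours; endpoints were derived by simple linear interpolation of the resulting dose-response curve. At the GI50, growth is halved. TGI denotes the concentration required for complete inhibition of growth.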

Each compound was assayed on OVCAR-4 ovarian (assay: NCI-60 cell line screen, 48 h).
In the case of `CCOC(=O)C1C2CCC1CC(=NNc1ccc([N+](=O)[O-])cc1[N+](=O)[O-])C2` (stereo unspecified), the TGI is reported as over 50 µM.
For `O=c1c2ccccc2c(=O)c2c1[nH]c1c(-c3ccccc3)c(-c3ccccc3)c(=O)c12`, the GI50 was 6.43 µM and the TGI was over 100 µM.
With `CCc1nc(C(N)=O)c(Nc2ccc(N3CCC(N4CCN(C)CC4)CC3)c(OC)c2)nc1NC1CCOCC1` the GI50 was 12.8 µM and > 10 µM and 13.8 µM and the TGI was 27.8 µM and > 10 µM and 32.2 µM.
In the case of `CC/C=C\C[C@H]1C/C=C2/C(=O)C=C[C@@H]2C/C=C\CCCC(=O)O1`, the GI50 is reported as 2.73 µM and the TGI is reported as 16.3 µM.

These compounds were tested on RXF 393 renal (assay: NCI-60 cell line screen, 48 h).
`CCOC(=O)C1C2CCC1CC(=NNc1ccc([N+](=O)[O-])cc1[N+](=O)[O-])C2` (stereo unspecified) was tested, and the TGI was over 50 µM.
`O=c1c2ccccc2c(=O)c2c1[nH]c1c(-c3ccccc3)c(-c3ccccc3)c(=O)c12` was tested, and the GI50 was 1.54 µM and the TGI was 5.02 µM.
For `CCc1nc(C(N)=O)c(Nc2ccc(N3CCC(N4CCN(C)CC4)CC3)c(OC)c2)nc1NC1CCOCC1`, the GI50 was 1.39 µM and 0.358 µM and 1.7 µM and the TGI was 4.54 µM and 1.12 µM and 6.27 µM.
In the case of `CC/C=C\C[C@H]1C/C=C2/C(=O)C=C[C@@H]2C/C=C\CCCC(=O)O1`, the GI50 is reported as 1.57 µM and the TGI is reported as 3.1 µM.

These compounds were tested on K-562 leukemia (assay: NCI-60 cell line screen, 48 h).
With `CCOC(=O)C1C2CCC1CC(=NNc1ccc([N+](=O)[O-])cc1[N+](=O)[O-])C2` (stereo unspecified) the TGI was over 50 µM.
`O=c1c2ccccc2c(=O)c2c1[nH]c1c(-c3ccccc3)c(-c3ccccc3)c(=O)c12` gave a GI50 of 3.68 µM and a TGI of over 100 µM.
In the case of `CCc1nc(C(N)=O)c(Nc2ccc(N3CCC(N4CCN(C)CC4)CC3)c(OC)c2)nc1NC1CCOCC1`, the TGI is reported as 33 µM and > 2.39 µM and 45.4 µM.
In the case of `CC/C=C\C[C@H]1C/C=C2/C(=O)C=C[C@@H]2C/C=C\CCCC(=O)O1`, the GI50 is reported as 0.353 µM and the TGI is reported as over 54.5 µM.

Each compound was assayed on EKVX NSCLC (assay: NCI-60 cell line screen, 48 h).
`CCOC(=O)C1C2CCC1CC(=NNc1ccc([N+](=O)[O-])cc1[N+](=O)[O-])C2` (stereo unspecified) showed a TGI of over 50 µM.
With `O=c1c2ccccc2c(=O)c2c1[nH]c1c(-c3ccccc3)c(-c3ccccc3)c(=O)c12` the GI50 was 3.2 µM and the TGI was 11.8 µM.
For `CCc1nc(C(N)=O)c(Nc2ccc(N3CCC(N4CCN(C)CC4)CC3)c(OC)c2)nc1NC1CCOCC1`, the GI50 was 0.83 µM and 0.375 µM and 0.727 µM and the TGI was 18.2 µM and > 4.97 µM and 19 µM.
Work on `CC/C=C\C[C@H]1C/C=C2/C(=O)C=C[C@@H]2C/C=C\CCCC(=O)O1` yielded a GI50 of 2.04 µM and a TGI of 5.89 µM.

Each compound was assayed on NCI-H460 lung (assay: NCI-60 cell line screen, 48 h).
Compound `CCOC(=O)C1C2CCC1CC(=NNc1ccc([N+](=O)[O-])cc1[N+](=O)[O-])C2` (stereo unspecified) has a TGI of over 50 µM.
Work on `O=c1c2ccccc2c(=O)c2c1[nH]c1c(-c3ccccc3)c(-c3ccccc3)c(=O)c12` yielded a GI50 of 2.82 µM and a TGI of 12 µM.
`CCc1nc(C(N)=O)c(Nc2ccc(N3CCC(N4CCN(C)CC4)CC3)c(OC)c2)nc1NC1CCOCC1` was tested, and the GI50 was 1.37 µM and 0.501 µM and 1.27 µM and the TGI was 17.4 µM and > 10 µM and 19.5 µM.
`CC/C=C\C[C@H]1C/C=C2/C(=O)C=C[C@@H]2C/C=C\CCCC(=O)O1` showed a GI50 of 2.16 µM and a TGI of 8.86 µM.

What follows are compounds tested on OVCAR-3 ovarian (assay: NCI-60 cell line screen, 48 h).
Work on `CCOC(=O)C1C2CCC1CC(=NNc1ccc([N+](=O)[O-])cc1[N+](=O)[O-])C2` (stereo unspecified) yielded a TGI of over 50 µM.
Work on `O=c1c2ccccc2c(=O)c2c1[nH]c1c(-c3ccccc3)c(-c3ccccc3)c(=O)c12` yielded a GI50 of 1.92 µM and a TGI of 4.48 µM.
For `CCc1nc(C(N)=O)c(Nc2ccc(N3CCC(N4CCN(C)CC4)CC3)c(OC)c2)nc1NC1CCOCC1`, the GI50 was 8.01 µM and 3.69 µM and 9.27 µM and the TGI was 22.9 µM and > 10 µM.
Compound `CC/C=C\C[C@H]1C/C=C2/C(=O)C=C[C@@H]2C/C=C\CCCC(=O)O1` has a GI50 of 0.734 µM and a TGI of 3.9 µM.

These compounds were tested on SF-268 CNS (assay: NCI-60 cell line screen, 48 h).
`CCOC(=O)C1C2CCC1CC(=NNc1ccc([N+](=O)[O-])cc1[N+](=O)[O-])C2` (stereo unspecified) was tested, and the TGI was over 50 µM.
For `O=c1c2ccccc2c(=O)c2c1[nH]c1c(-c3ccccc3)c(-c3ccccc3)c(=O)c12`, the GI50 was 4.48 µM and the TGI was over 100 µM.
For `CCc1nc(C(N)=O)c(Nc2ccc(N3CCC(N4CCN(C)CC4)CC3)c(OC)c2)nc1NC1CCOCC1`, the TGI was 22.8 µM and > 2.72 µM and 24.5 µM.
For `CC/C=C\C[C@H]1C/C=C2/C(=O)C=C[C@@H]2C/C=C\CCCC(=O)O1`, the GI50 was 2.16 µM and the TGI was 9.49 µM.

What follows are compounds tested on DU-145 prostate (assay: NCI-60 cell line screen, 48 h).
Work on `CCOC(=O)C1C2CCC1CC(=NNc1ccc([N+](=O)[O-])cc1[N+](=O)[O-])C2` (stereo unspecified) yielded a TGI of over 50 µM.
`O=c1c2ccccc2c(=O)c2c1[nH]c1c(-c3ccccc3)c(-c3ccccc3)c(=O)c12` showed a GI50 of 2.71 µM and a TGI of 9.44 µM.
With `CCc1nc(C(N)=O)c(Nc2ccc(N3CCC(N4CCN(C)CC4)CC3)c(OC)c2)nc1NC1CCOCC1` the GI50 was 0.904 µM and 0.359 µM and 0.719 µM and the TGI was 18.5 µM and > 10 µM and 17.3 µM.
Work on `CC/C=C\C[C@H]1C/C=C2/C(=O)C=C[C@@H]2C/C=C\CCCC(=O)O1` yielded a GI50 of 0.816 µM and a TGI of 5.79 µM.

These compounds were tested on UACC-257 melanoma (assay: NCI-60 cell line screen, 48 h).
For `CCOC(=O)C1C2CCC1CC(=NNc1ccc([N+](=O)[O-])cc1[N+](=O)[O-])C2` (stereo unspecified), the TGI was over 50 µM.
With `O=c1c2ccccc2c(=O)c2c1[nH]c1c(-c3ccccc3)c(-c3ccccc3)c(=O)c12` the GI50 was 2.46 µM and the TGI was 8.22 µM.
In the case of `CCc1nc(C(N)=O)c(Nc2ccc(N3CCC(N4CCN(C)CC4)CC3)c(OC)c2)nc1NC1CCOCC1`, the TGI is reported as 24.5 µM and > 10 µM and 24.3 µM.
Compound `CC/C=C\C[C@H]1C/C=C2/C(=O)C=C[C@@H]2C/C=C\CCCC(=O)O1` has a GI50 of 1.78 µM and a TGI of 5.23 µM.

These compounds were tested on SF-539 CNS (assay: NCI-60 cell line screen, 48 h).
`CCOC(=O)C1C2CCC1CC(=NNc1ccc([N+](=O)[O-])cc1[N+](=O)[O-])C2` (stereo unspecified) gave a TGI of over 50 µM.
`O=c1c2ccccc2c(=O)c2c1[nH]c1c(-c3ccccc3)c(-c3ccccc3)c(=O)c12` gave a GI50 of 1.85 µM and a TGI of 3.74 µM.
In the case of `CCc1nc(C(N)=O)c(Nc2ccc(N3CCC(N4CCN(C)CC4)CC3)c(OC)c2)nc1NC1CCOCC1`, the GI50 is reported as 5.46 µM and 1.05 µM and 7.87 µM and the TGI is reported as 20.3 µM and > 2.27 µM and 22.1 µM.
Work on `CC/C=C\C[C@H]1C/C=C2/C(=O)C=C[C@@H]2C/C=C\CCCC(=O)O1` yielded a GI50 of 0.855 µM and a TGI of 2.67 µM.

These compounds were tested on M14 melanoma (assay: NCI-60 cell line screen, 48 h).
For `CCOC(=O)C1C2CCC1CC(=NNc1ccc([N+](=O)[O-])cc1[N+](=O)[O-])C2` (stereo unspecified), the TGI was over 50 µM.
For `O=c1c2ccccc2c(=O)c2c1[nH]c1c(-c3ccccc3)c(-c3ccccc3)c(=O)c12`, the GI50 was 2.41 µM and the TGI was 5.63 µM.
With `CCc1nc(C(N)=O)c(Nc2ccc(N3CCC(N4CCN(C)CC4)CC3)c(OC)c2)nc1NC1CCOCC1` the GI50 was 1.1 µM and 0.253 µM and 0.961 µM and the TGI was 16.4 µM and > 2.57 µM and 17.9 µM.
`CC/C=C\C[C@H]1C/C=C2/C(=O)C=C[C@@H]2C/C=C\CCCC(=O)O1` gave a GI50 of 0.599 µM and a TGI of 3.7 µM.

These compounds were tested on SK-OV-3 ovarian (assay: NCI-60 cell line screen, 48 h).
`CCOC(=O)C1C2CCC1CC(=NNc1ccc([N+](=O)[O-])cc1[N+](=O)[O-])C2` (stereo unspecified) gave a TGI of over 50 µM.
For `CCc1nc(C(N)=O)c(Nc2ccc(N3CCC(N4CCN(C)CC4)CC3)c(OC)c2)nc1NC1CCOCC1`, the GI50 was 1.57 µM and 0.397 µM and 1.51 µM and the TGI was 12.3 µM and > 10 µM and 13.8 µM.
In the case of `CC/C=C\C[C@H]1C/C=C2/C(=O)C=C[C@@H]2C/C=C\CCCC(=O)O1`, the GI50 is reported as 3.99 µM and the TGI is reported as 12.9 µM.

What follows are compounds tested on MDA-N (assay: NCI-60 cell line screen, 48 h).
With `CCOC(=O)C1C2CCC1CC(=NNc1ccc([N+](=O)[O-])cc1[N+](=O)[O-])C2` (stereo unspecified) the TGI was over 50 µM.

These compounds were tested on SR leukemia (assay: NCI-60 cell line screen, 48 h).
For `CCOC(=O)C1C2CCC1CC(=NNc1ccc([N+](=O)[O-])cc1[N+](=O)[O-])C2` (stereo unspecified), the TGI was over 50 µM.
`O=c1c2ccccc2c(=O)c2c1[nH]c1c(-c3ccccc3)c(-c3ccccc3)c(=O)c12` gave a GI50 of 2.15 µM and a TGI of 13.5 µM.
`CCc1nc(C(N)=O)c(Nc2ccc(N3CCC(N4CCN(C)CC4)CC3)c(OC)c2)nc1NC1CCOCC1` was tested, and the GI50 was < 0.0135 µM and 0.0021 µM and 0.013 µM.
For `CC/C=C\C[C@H]1C/C=C2/C(=O)C=C[C@@H]2C/C=C\CCCC(=O)O1`, the GI50 was 0.288 µM.

What follows are compounds tested on BT-549 breast (assay: NCI-60 cell line screen, 48 h).
Work on `CCOC(=O)C1C2CCC1CC(=NNc1ccc([N+](=O)[O-])cc1[N+](=O)[O-])C2` (stereo unspecified) yielded a TGI of over 50 µM.
Compound `O=c1c2ccccc2c(=O)c2c1[nH]c1c(-c3ccccc3)c(-c3ccccc3)c(=O)c12` has a GI50 of 2.09 µM and a TGI of 4.69 µM.
In the case of `CCc1nc(C(N)=O)c(Nc2ccc(N3CCC(N4CCN(C)CC4)CC3)c(OC)c2)nc1NC1CCOCC1`, the GI50 is reported as 2.61 µM and 0.521 µM and 3.56 µM and the TGI is reported as 14.7 µM and > 2.84 µM and 17.3 µM.
Work on `CC/C=C\C[C@H]1C/C=C2/C(=O)C=C[C@@H]2C/C=C\CCCC(=O)O1` yielded a GI50 of 0.674 µM and a TGI of 3.22 µM.

Each compound was assayed on T-47D breast (assay: NCI-60 cell line screen, 48 h).
With `O=c1c2ccccc2c(=O)c2c1[nH]c1c(-c3ccccc3)c(-c3ccccc3)c(=O)c12` the GI50 was 1.8 µM and the TGI was 7.76 µM.
In the case of `CCc1nc(C(N)=O)c(Nc2ccc(N3CCC(N4CCN(C)CC4)CC3)c(OC)c2)nc1NC1CCOCC1`, the GI50 is reported as 13.2 µM and > 10 µM and 13.4 µM and the TGI is reported as 30 µM and > 10 µM and 32.7 µM.
